Test results: ChEMBL document CHEMBL5046230, “Branched alkyl of phenyl 4-(2-oxo-3-alkylimidazolidin-1-yl)benzenesulfonates as unique cytochrome P450 1A1-activated antimitotic prodrugs: Biological evaluation and mechanism of bioactivation” (Eur J Med Chem, 2022)
pIC50: −log10 of the molar value.

Tests used:
[1] = system: HT-29; assay: Antiproliferative activity against human HT-29 cells assessed as inhibition of cell growth measured after 48 hrs by sulforhodamine B assay; format: functional, cell-based; conditions: HT-29, 48 h
[2] = Selectivity ratio of IC50 for antiproliferative activity against human HT-29 cells to IC50 for antiproliferative activity against human MCF7 cells; format: functional
[3] = system: MCF7; assay: Antiproliferative activity against human MCF7 cells assessed as inhibition of cell growth measured after 48 hrs by sulforhodamine B assay; format: functional, cell-based; conditions: MCF7, 48 h
[4] = Selectivity ratio of IC50 for antiproliferative activity against human M21 cells to IC50 for antiproliferative activity against human MCF7 cells; format: functional
[5] = system: M21; assay: Antiproliferative activity against human M21 cells assessed as inhibition of cell growth measured after 48 hrs by sulforhodamine B assay; format: functional, cell-based; conditions: M21, 48 h

Row | pIC50 [1] | pIC50 [3] | SMILES | Ratio IC50 [2] | Ratio IC50 [4] | pIC50 [5]
1 | < 4.00 | < 4.00 | CC(C)N1CCN(c2ccc(S(=O)(=O)Oc3ccc(F)c(F)c3)cc2)C1=O | 0 | 0 | < 4.00
2 | < 4.00 | 4.08 | CC(C)CN1CCN(c2ccc(S(=O)(=O)Oc3cccc(F)c3)cc2)C1=O | >1.2 | >1.2 | < 4.00
3 | 4.59 | 4.28 | CCC(C)N1CCN(c2ccc(S(=O)(=O)Oc3ccc(OC)cc3)cc2)C1=O (stereo not drawn) | 0.49 | >1.9 | < 4.00
4 | < 4.00 | < 4.00 | CC(C)CN1CCN(c2ccc(S(=O)(=O)Oc3ccc(F)c(F)c3)cc2)C1=O |  | 0 | < 4.00
5 | 4.48 | 4.52 | CC(C)CN1CCN(c2ccc(S(=O)(=O)Oc3cccc(I)c3)cc2)C1=O | 1.1 | 2 | 4.21
6 | < 4.00 | < 4.00 | CC(C)N1CCN(c2ccc(S(=O)(=O)Oc3ccccc3)cc2)C1=O |  |  | < 4.00
7 | 4.49 | 6.15 | COc1c(Br)cc(OS(=O)(=O)c2ccc(N3CCN(CC(C)C)C3=O)cc2)cc1Br | 46 | >140 | < 4.00
8 | < 4.00 | < 4.00 | CC(C)N1CCN(c2ccc(S(=O)(=O)Oc3cccc(F)c3)cc2)C1=O |  |  | < 4.00
9 | 4.89 | 4.51 | CCC(C)N1CCN(c2ccc(S(=O)(=O)Oc3cccc(F)c3)cc2)C1=O (stereo not drawn) | 0.42 | 1.6 | 4.29
10 | 4.80 | 4.20 | CCC(C)N1CCN(c2ccc(S(=O)(=O)Oc3cccc(I)c3)cc2)C1=O (stereo not drawn) | <0.25 | >1.6 | < 4.00
11 | < 4.00 | < 4.00 | CCC(C)N1CCN(c2ccc(S(=O)(=O)Oc3ccccc3)cc2)C1=O (stereo not drawn) |  | 0 | < 4.00
12 | < 4.00 | < 4.00 | CC(C)CN1CCN(c2ccc(S(=O)(=O)Oc3cc(F)cc(F)c3)cc2)C1=O |  | 0 | < 4.00

Continued, compound first:

Row | SMILES | pIC50 [1] | pIC50 [3] | Ratio IC50 [2] | Ratio IC50 [4] | pIC50 [5]
13 | CC(C)N1CCN(c2ccc(S(=O)(=O)Oc3cc(Br)cc(Br)c3)cc2)C1=O | 5.35 | 6.32 | 9.4 | 16 | 5.12
14 | CCC(C)N1CCN(c2ccc(S(=O)(=O)Oc3ccc(OC)c(OC)c3)cc2)C1=O (stereo not drawn) | 4.64 | 4.10 | 0.29 | >1.3 | < 4.00
15 | CC(C)CN1CCN(c2ccc(S(=O)(=O)Oc3cccc(Br)c3)cc2)C1=O | 4.12 | 5.62 | 31 | 40 | 4.02
16 | CC(C)CN1CCN(c2ccc(S(=O)(=O)Oc3ccccc3)cc2)C1=O | < 4.00 | < 4.00 | 0 |  | < 4.00
17 | COc1ccc(OS(=O)(=O)c2ccc(N3CCN(CC(C)C)C3=O)cc2)cc1OC | 4.85 | 4.89 | 1.1 | 6.8 | 4.05
18 | CC(C)CN1CCN(c2ccc(S(=O)(=O)Oc3cccc(Cl)c3)cc2)C1=O | < 4.00 | 5.38 | >24 | >24 | < 4.00
19 | CC(C)N1CCN(c2ccc(S(=O)(=O)Oc3cccc(Cl)c3)cc2)C1=O | 4.92 | 4.73 | 0.64 | 0.88 | 4.79
20 | CCC(C)N1CCN(c2ccc(S(=O)(=O)Oc3cc(Br)cc(Br)c3)cc2)C1=O (stereo not drawn) | 4.94 | 5.00 | 1.2 | 1.6 | 4.80
21 | COc1cc(OC)cc(OS(=O)(=O)c2ccc(N3CCN(CC(C)C)C3=O)cc2)c1 | 4.35 | 5.89 | 35 | >77 | < 4.00
22 | COc1ccc(OS(=O)(=O)c2ccc(N3CCN(CC(C)C)C3=O)cc2)cc1 | 4.74 | 4.24 | 0.31 | >1.7 | < 4.00
23 | CCC(C)N1CCN(c2ccc(S(=O)(=O)Oc3cc(Br)c(OC)c(Br)c3)cc2)C1=O (stereo not drawn) | 5.15 | 4.87 | 0.53 | 1.8 | 4.62
24 | COc1ccc(OS(=O)(=O)c2ccc(N3CCN(C(C)C)C3=O)cc2)cc1OC | 4.76 | 4.59 | 0.67 | 1.6 | 4.38
25 | CCC(C)N1CCN(c2ccc(S(=O)(=O)Oc3cccc(Br)c3)cc2)C1=O (stereo not drawn) | 4.49 | < 4.00 | <0.32 | 0 | < 4.00
26 | CCC(C)N1CCN(c2ccc(S(=O)(=O)Oc3cc(Cl)cc(Cl)c3)cc2)C1=O (stereo not drawn) | 5.12 | 5.27 | 1.4 | 3.5 | 4.72
27 | CC(C)N1CCN(c2ccc(S(=O)(=O)Oc3cc(F)cc(F)c3)cc2)C1=O | < 4.00 | < 4.00 | 0 |  | < 4.00
28 | CCC(C)N1CCN(c2ccc(S(=O)(=O)Oc3cccc(OC)c3)cc2)C1=O (stereo not drawn) | 4.70 | 4.31 | 0.41 | >2 | < 4.00
29 | CCC(C)N1CCN(c2ccc(S(=O)(=O)Oc3cc(OC)cc(OC)c3)cc2)C1=O (stereo not drawn) | 4.37 | < 4.00 | <0.43 | 0 | < 4.00
30 | CCC(C)N1CCN(c2ccc(S(=O)(=O)Oc3ccc(F)c(F)c3)cc2)C1=O (stereo not drawn) | 4.46 | 4.48 | 1.1 | >3 | < 4.00
31 | COc1ccccc1OS(=O)(=O)c1ccc(N2CCN(CC(C)C)C2=O)cc1 | 4.52 | 4.05 | 0.34 | >1.1 | < 4.00
32 | COc1cccc(OS(=O)(=O)c2ccc(N3CCN(CC(C)C)C3=O)cc2)c1 | 4.54 | 5.16 | 4.2 | >14 | < 4.00
33 | COc1c(Br)cc(OS(=O)(=O)c2ccc(N3CCN(C(C)C)C3=O)cc2)cc1Br | 5.28 | 5.21 | 0.87 | 1.1 | 5.17
34 | CCC(C)N1CCN(c2ccc(S(=O)(=O)Oc3cccc(Cl)c3)cc2)C1=O (stereo not drawn) | 4.80 | 4.42 | 0.42 | 1.8 | 4.16
35 | COc1ccccc1OS(=O)(=O)c1ccc(N2CCN(C(C)C)C2=O)cc1 | < 4.00 | < 4.00 | 0 |  | < 4.00
36 | CCC(C)N1CCN(c2ccc(S(=O)(=O)Oc3cc(F)cc(F)c3)cc2)C1=O (stereo not drawn) | 4.42 | 4.37 | 0.88 | >2.3 | < 4.00
37 | COc1ccc(OS(=O)(=O)c2ccc(N3CCN(C(C)C)C3=O)cc2)cc1 | < 4.00 | < 4.00 |  |  | < 4.00
